This assay has as its system Plasmodium berghei. The assay can be described thus: Luciferase/luciferin-expressing antifolate-resistant parasites were used to infect a culture of HepG2 cells that were pre-incubated with compounds. Infected hepatocytes emit light due to the luciferase reaction. Assay results are presented as the percent inhibition of light emission compared to control. […]. Format: functional. The following applies: sporozoite; for IC90: read-out: LUCIFERASE INFECTION ASSAY - IC90.

Structures are written as SMILES. A value given as a limit tells only on which side of the number the result lay.

`CCCc1nc2oc3cc(OC)ccc3c(=O)c2c(=O)n1Cc1ccco1`: the 90% effect concentration (IC90) was greater than 9.01 µM. Moreover, for the setting “PBLUC_HILL_SLOPE 1.9, PBLUC_R_SQUARED 0.121, read-out: LUCIFERASE INFECTION ASSAY - IC50”, the half-maximal inhibitory concentration (IC50) was 5.6 µM.

Take `CC1=CC(C)(C)N(C(=O)c2ccc(F)cc2)c2cc3c(cc21)OCO3`: the IC90 was greater than 9.72 µM. For the setting “PBLUC_HILL_SLOPE 1.83, PBLUC_R_SQUARED 0.549, read-out: LUCIFERASE INFECTION ASSAY - IC50”, the IC50 turned out to be 6.14 µM.

Take `Cc1ccc(Oc2c(C)nc(-c3ccccc3)nc2O)cc1`: the concentration for an effect of 90% (IC90) was found to be 1.76 µM. In addition, the IC50 (PBLUC_HILL_SLOPE 1.81, PBLUC_R_SQUARED 0.898, read-out: LUCIFERASE INFECTION ASSAY - IC50) was 0.524 µM.

Take `c1cc(-c2cn3c(-c4ccc5c(c4)OCO5)cnc3cn2)cs1`: the IC90 is greater than 10.3 µM. Further, for the setting “PBLUC_HILL_SLOPE 1.82, PBLUC_R_SQUARED 0.105, read-out: LUCIFERASE INFECTION ASSAY - IC50”, the IC50 was greater than 10.3 µM.

Take `COc1ccc(-c2cnc3cnc(-c4ccc(N)nc4)cn23)cc1`: the IC90 came out at 8 µM. In addition, the half-inhibitory concentration (IC50) (PBLUC_HILL_SLOPE 1.84, PBLUC_R_SQUARED 0.648, read-out: LUCIFERASE INFECTION ASSAY - IC50) is 2.43 µM.

Consider `Cc1ccc(-c2cnc3ccc(NCc4cccs4)nn23)cc1`, for which the IC90 was greater than 10.3 µM. For the same compound, the IC50 (PBLUC_HILL_SLOPE 1.88, PBLUC_R_SQUARED 0.642, read-out: LUCIFERASE INFECTION ASSAY - IC50) came out at 4.8 µM.

As for `CC(=O)c1ccc(-c2cnc3sc(NCCN4CCOCC4)nn23)s1`, the IC90 is greater than 8.74 µM. Further, the IC50 (PBLUC_HILL_SLOPE 1.89, PBLUC_R_SQUARED 0.43, read-out: LUCIFERASE INFECTION ASSAY - IC50) is 5.97 µM.

Regarding `Cn1c(Nc2cccc(C(F)(F)F)c2)nc2cnc(-c3ccc(N)nc3)cc21`, the concentration for an effect of 90% (IC90) was greater than 10 µM. The IC50 (PBLUC_HILL_SLOPE 1.84, PBLUC_R_SQUARED 0.0919, read-out: LUCIFERASE INFECTION ASSAY - IC50) was greater than 10 µM.

As to `COc1ccc(NC(=O)CN(C)c2nc(-c3cccnc3)nc3sc(C)c(C)c23)cc1`, the IC90 came to 3.92 µM. Also, the IC50 (PBLUC_HILL_SLOPE 1.86E+03, PBLUC_R_SQUARED 0.436, read-out: LUCIFERASE INFECTION ASSAY - IC50) is 3.92 µM.

As to `Cc1ccc(S(=O)(=O)Nc2ccc(Nc3nccn4c(-c5ccc(F)cc5)cnc34)cc2)cc1`, the IC90 was determined as 4.49 µM. Also, under “PBLUC_HILL_SLOPE 1.86, PBLUC_R_SQUARED 0.706, read-out: LUCIFERASE INFECTION ASSAY - IC50”, the IC50 worked out at 1.37 µM.

Turning to `Cc1ccc(C)c(-n2nnnc2SCC(=O)Nc2nc(-c3ccccn3)cs2)c1`, the IC90 is greater than 10 µM. For the same compound, the IC50 (PBLUC_HILL_SLOPE 1.88, PBLUC_R_SQUARED 0.631, read-out: LUCIFERASE INFECTION ASSAY - IC50) came out at 5.63 µM.

Turning to `COc1ccc2c(c1)c(-c1csc(NC(=O)c3ccccn3)n1)c(C)n2C`, the IC90 is greater than 8.72 µM. For the same compound, for the setting “PBLUC_HILL_SLOPE 1.89, PBLUC_R_SQUARED 0.766, read-out: LUCIFERASE INFECTION ASSAY - IC50”, the IC50 is greater than 8.72 µM.

As for `CC(C)n1ncc2cc(C(=O)Nc3nnc(-c4ccccn4)[nH]3)cnc21`, the 90% effect concentration (IC90) is greater than 10 µM. Besides, the half-maximal inhibitory concentration (IC50) (PBLUC_HILL_SLOPE 1.86, PBLUC_R_SQUARED 0.0303, read-out: LUCIFERASE INFECTION ASSAY - IC50) was found to be 6.07 µM.

`N#Cc1ccc(Sc2c(Cl)cccc2Cl)c(NC(=O)c2cccc(Cl)c2)c1`: the IC90 is greater than 7.61 µM. Also, the IC50 (PBLUC_HILL_SLOPE 1.82, PBLUC_R_SQUARED 0.326, read-out: LUCIFERASE INFECTION ASSAY - IC50) stood at 6.05 µM.

Consider `O=C1Nc2ccc([N+](=O)[O-])cc2/C1=N\NC(=O)c1cc2ccccc2cc1O`, for which the IC90 is greater than 10 µM. The IC50 (PBLUC_HILL_SLOPE 1.88, PBLUC_R_SQUARED 0.548, read-out: LUCIFERASE INFECTION ASSAY - IC50) came out at 4.86 µM.

On to `CC(C)(C)c1cc(C(=O)OCC(=O)N2CCCCC2)cc(C(C)(C)C)c1`, for which the IC90 was greater than 10 µM. Where the note is “PBLUC_HILL_SLOPE 1.88, PBLUC_R_SQUARED 0.16, read-out: LUCIFERASE INFECTION ASSAY - IC50”, the IC50 is 8.44 µM.

`CC(=O)c1ccc(-c2ccc(C(=O)N3CCc4sccc4C3)o2)cc1`: the IC90 was greater than 10 µM. For the setting “PBLUC_HILL_SLOPE 1.84, PBLUC_R_SQUARED 0.357, read-out: LUCIFERASE INFECTION ASSAY - IC50”, the IC50 is 4.1 µM.

As to `Cc1ccc(C(=O)C(C)Oc2ccc(NC(=O)c3cccs3)cc2)cc1` (centres undefined), the IC90 was determined as 1.47 µM. The IC50 (PBLUC_HILL_SLOPE 1.89, PBLUC_R_SQUARED 0.795, read-out: LUCIFERASE INFECTION ASSAY - IC50) turned out to be 0.461 µM.

For `O=C(Nc1ccc(Cl)cc1)N1CCCN(Cc2ccc(Br)cc2F)CC1`, the IC90 is greater than 7.49 µM. Besides, the concentration for half-maximal inhibition (IC50) (PBLUC_HILL_SLOPE 1.86, PBLUC_R_SQUARED 0.575, read-out: LUCIFERASE INFECTION ASSAY - IC50) stood at 2.95 µM.

For the compound `CC(C)c1cccc(Nc2cc3c(cn2)nc(Nc2ccccc2)n3C)c1`, the IC90 was greater than 10 µM. For the same compound, the IC50 (PBLUC_HILL_SLOPE 1.87, PBLUC_R_SQUARED 0.0991, read-out: LUCIFERASE INFECTION ASSAY - IC50) is greater than 10 µM.

For the compound `Cc1nc2nc(C(F)(F)F)nn2c(C)c1CCC(=O)NCC(c1cccs1)N1CCC(C)CC1` (centres undefined), the 90% effect concentration (IC90) was greater than 10 µM. For the same compound, where the note is “PBLUC_HILL_SLOPE 1.88, PBLUC_R_SQUARED 0.575, read-out: LUCIFERASE INFECTION ASSAY - IC50”, the IC50 was determined as 6.51 µM.

Consider `CCCCNc1nc2ccccc2n1CC(=O)Nc1ccc(S(=O)(=O)N2CCCC2)cc1`, for which the IC90 was greater than 10 µM. The concentration for half-maximal inhibition (IC50) (PBLUC_HILL_SLOPE 1.82, PBLUC_R_SQUARED 0.488, read-out: LUCIFERASE INFECTION ASSAY - IC50) was found to be 3.67 µM.

For the compound `CS(=O)(=O)c1ccc2c(c1)sc1nc(-c3ccccc3Cl)cn12`, the IC90 is greater than 10 µM. Moreover, the IC50 (PBLUC_HILL_SLOPE 1.82, PBLUC_R_SQUARED 0.22, read-out: LUCIFERASE INFECTION ASSAY - IC50) stood at 4.47 µM.

For the compound `O=C1C(=O)N(CCN2CCOCC2)c2ccc(Cl)cc21`, the IC90 worked out at 9.44 µM. In addition, the IC50 (PBLUC_HILL_SLOPE 1.82, PBLUC_R_SQUARED 0.307, read-out: LUCIFERASE INFECTION ASSAY - IC50) was determined as 2.83 µM.

Turning to `CC(C)(C)c1ccc(-n2nnnc2-c2ccccc2)cc1`, the IC90 was greater than 11.9 µM. For the same compound, the half-inhibitory concentration (IC50) (PBLUC_HILL_SLOPE 1.83, PBLUC_R_SQUARED 0.134, read-out: LUCIFERASE INFECTION ASSAY - IC50) is 6.62 µM.

For `O=C(NCCCNc1ccnc2cc(Cl)ccc12)c1ccccc1F`, the 90% effect concentration (IC90) is 6.19 µM. The IC50 (PBLUC_HILL_SLOPE 1.88, PBLUC_R_SQUARED 0.797, read-out: LUCIFERASE INFECTION ASSAY - IC50) turned out to be 1.93 µM.

With `O=C(NNC(=O)c1csnn1)c1ccc(Cl)cc1`, the IC90 was 0.897 µM. Besides, where the note is “PBLUC_HILL_SLOPE 1.87, PBLUC_R_SQUARED 0.856, read-out: LUCIFERASE INFECTION ASSAY - IC50”, the IC50 was 0.277 µM.

Source of the values: ChEMBL document CHEMBL4483862, “Open-source discovery of chemical leads for next-generation chemoprotective antimalarials” (2018).
